Results from ChEMBL document CHEMBL6092217 (Eur J Med Chem, 2024).

Tests used:
[1] = system: MDA-MB-231; test: cells; settings: Homo sapiens, MDA-MB-231, 72 h
Description: Antiproliferative activity against human MDA-MB-231 cells assessed as cell viability incubated for 72 hrs by MTT assay

[2] = system: MCF7; test: Antiproliferative activity against human MCF7 cells assessed as cell viability incubated for 72 hrs by MTT assay; type: functional, cell-based; settings: MCF7, 72 h
[3] = system: HT-29; test: Induction of apoptosis in human HT-29 cells assessed as late apoptotic cells at 20 nM incubated for 24 hrs by FITC/PI staining based flow cytometry analysis (reference value: 0.20%); type: functional
[4] = system: HT-29; test: Induction of cell cycle arrest in human HT-29 cells assessed as accumulation of cells at G1 phase at 10 nM incubated for 24 hrs by flow cytometry analysis (reference value: 67.6%); type: functional
[5] = system: HT-29; test: Antiproliferative activity against human HT-29 cells assessed as cell viability incubated for 72 hrs by MTT assay; type: functional, cell-based; settings: HT-29, 72 h
[6] = system: RKO; test: Antiproliferative activity against human RKO cells assessed as cell viability incubated for 72 hrs by MTT assay; type: functional, cell-based
[7] = system: HT-29; test: Induction of apoptosis in human HT-29 cells assessed as viable cells at 20 nM incubated for 24 hrs by FITC/PI staining based flow cytometry analysis (reference value: 91.6%); type: functional; settings: read-out: Activity
[8] = Resistance index, ratio of IC50 for human A549/TxR cells to IC50 for human A549 cells; type: functional
[9] = system: HT-29; test: Induction of apoptosis in human HT-29 cells assessed as necrotic cells at 20 nM incubated for 24 hrs by FITC/PI staining based flow cytometry analysis (reference value: 0.017 %); type: functional
[10] = system: PC-3; test: Antiproliferative activity against human PC-3 cells assessed as cell viability incubated for 72 hrs by MTT assay; type: functional, cell-based; settings: PC-3, 72 h
[11] = system: HT-29; test: Induction of apoptosis in human HT-29 cells assessed as early apoptotic cells at 20 nM incubated for 24 hrs by FITC/PI staining based flow cytometry analysis (reference value: 8.14%); type: functional
[12] = system: HT-29; test: Induction of cell cycle arrest in human HT-29 cells assessed as accumulation of cells at G2 phase at 10 nM incubated for 24 hrs by flow cytometry analysis (reference value: 13 %); type: functional
[13] = system: HT-29; test: Induction of cell cycle arrest in human HT-29 cells assessed as accumulation of cells at S phase at 10 nM incubated for 24 hrs by flow cytometry analysis (reference value: 20.8 %); type: functional
[14] = system: HepG2; test: Antiproliferative activity against human HepG2 cells assessed as cell viability incubated for 72 hrs by MTT assay; type: functional, cell-based; settings: HepG2, 72 h

IC50 [1]: 22 nM | IC50 [2]: 37 nM | IC50 [5]: 13 nM | IC50 [10]: 28 nM | IC50 [14]: 36 nM
SMILES: CC(=O)O[C@H]1C(=O)[C@@]2(C)[C@H]([C@H](OC(=O)c3ccccc3)[C@]3(O)C[C@H](OC(=O)[C@H](O)[C@@H](NC(=O)c4ccccc4)c4ccccc4)C(C)=C1C3(C)C)[C@]1(OC(C)=O)CO[C@@H]1C[C@@H]2O [PACLITAXEL]
Activity [3]: 22.7% | Activity [4]: 60.2% | IC50 [6]: 3 nM | viability at 0.02 µM [7]: 70.6% | Ratio IC50 [8]: 11.29 | Activity [9]: 1.32% | Activity [11]: 5.4% | Activity [12]: 22.6% | Activity [13]: 15.1%
